Data reported in publication PMC6756013, “B591, a novel specific pan-PI3K inhibitor, preferentially targets cancer stem cells” (Oncogene, 2019).

What was measured:
[1] = system: primary tumor cells dissociated from MDA-MB-231 xenografts replanted into NOD/SCID mice; assay: Limiting dilution assay of cells from treated MDA-MB-231 xenografts; assay type: in vivo; settings: for number of tumor-bearing mice (number of recipient mice): cells from 16 mg/kg group, 3 months later
Protocol: Fig. 5 B591 abolishes tumor growth in vivo by eliminating CSCs. a MDA-MB-231 xenografts were treated with vehicle or B591 for 2 weeks, then the residual tumor tissue was harvested and dissociated into single cells for subsequent CSCs assays according with the flow chart. b–d Tumor weight and mice body weight were measured every 2 days during treatment. In the end of treatment, tumor tissues were collected and weighted (n = 8). e The CSCs markers of tumor cells were analyzed by flow cytometry. Only the live and non-mouse cell population was gated and analyzed. Data from three mice were plotted. f Mammosphere formation assay was carried out with the single cells. The relative mammosphere-formation ability is shown as percentage, and data represent mean ± SD. g The single cells from vehicle and 16 mg/kg of B591 group were replanted into NOD/SCID mice according to the indicating number, and 3 months later, tumors were counted for calculating the tumor-initiating frequency. h The CSCs markers and the downstream substrates of PI3K pathway were analyzed using the lysates from the primary xenografts by western blot analysis. ^**p < 0.01, difference versus vehicle-treated control group TEXT PRINTED IN THE PICTURE: (G) B591: 3(5) (Cell number: 200 000); 2(5) (Cell number: 20 000); 0(5) (Cell number: 2 000); 0(5) (Cell number: 200); TIF: 1/145 000
The primary tumor cells dissociated from xenografts were injected into the mammary fat pad of NOD/SCID mice in limiting dilutions.
In MDA-MB-231 xenografts experiment, 1 × 10^6 cells were incubated into the mammary fat pad of mice orthotopically. When the volume of tumor reached above 50 mm^3, the mice were randomly divided into three groups for introperitoneal (i.p.) injection with vehicle, 4 mg/kg and 16 mg/kg B591. The tumor volume and the body weight of mice were measured during the 2-weeks treatment. In the end of treatment, the mice were killed, and the tumor tissues were dissected and dissociated into single cell suspension with Dispase II (Roche, Basel, Switzerland) according with the manufacture’s protocol. Then these single cells were used for CSCs phenotype assay, ALDH activity assay, mammosphere formation assay and limiting dilution assay in vivo as described above.

[2] = system: CHO cells stably expressing EGFP-Akt1; assay: Akt1 redistribution (IGF-1-stimulated membrane translocation of EGFP-Akt1); assay type: cell-based
Excerpt: Growth factors such as insulin-like growth factor 1 (IGF-1) and cytokines such as interleukin-6 stimulate and activate PI3K, leading to a subsequent increase of plasma membrane translocation and phosphorylation of Akt. Activated Akt promotes cell survival, cell growth and proliferation in human cancers.
Fig. 2 B591 inhibits PI3K/Akt pathway in multiple cancer cell lines. a Representative images of Akt1 redistribution in IGF-1-treated cells in the absence or presence of B591. Scale bar represents 10 μm. Arrows indicate IGF-1-mediated membrane translocation detected by the image analysis algorithm. b Inhibition of mTORC1 and mTORC2 signaling in multiple cancer cell lines, exposed for 5 h to increasing concentrations of B591. c HepG2 cells were treated with DMSO or 20 μM of B591 for 5 h. Immunofluorescence (red) intensity reflects eIF4E subcellular distribution. Cells were visualized with high content reader. Representative images are shown, and scale bar represents 50 μm. d Nuclear-to-cytoplasmic ratio of eIF4E in five cancer cell lines was determined via high content reader. e The phosphorylation of AKT and ERK was determined by immunoblotting in RD cells in the presence of 10 μM of B591 after indicated time of exposure. f Inhibition of the phosphorylation of AKT and ERK in RD cells treated with B591, PI-103 or Rapamycin for 24 h was determined by immunoblotting […]

[3] = biological target: T1, PI3Kδ (p110δ/p85α) (Homo sapiens, UniProt O00329); assay: In vitro PI3K kinase assay (PI3-Kinase Activity ELISA); assay type: biochemical; settings: incubated 30 min at room temperature
T1 construct: purchased Promega
Protocol: (§1) Purified PI3K Class I Lipid Kinase, including p110α/p85α, p110β/p85α, p110γ, and p110δ/p85α (Promega, Madison, WI, USA), was respectively incubated with B591 for 30 min at room temperature. The activity of PI3K was evaluated using a PI3-Kinase Activity ELISA kit (K-1000s, Echelon, Salt Lake City, UT, USA) according to the manufacture’s instructions. The assay is a competitive ELISA in which the signal is inversely proportional to the amount of PI(3,4,5)P3 produced. After the PI3-Kinase reactions are complete, reaction products are first mixed and incubated with a PI(3,4,5)P3 detector protein, then added to the PI(3,4,5)P3-coated microplate for competitive binding. A peroxidase-linked secondary detector and colorimetric detection is used to detect PI(3,4,5)P3 detector binding to the plate. The colorimetric signal is inversely proportional to the amount of PI(3,4,5)P3 produced by PI3-Kinase. The absorbance was measured at 450 nm with a Multilabel Reader (PerkinElmer, Waltham, MA, USA). ATP competition assays were executed with varying concentrations of ATP, and five concentrations of ATP were 5 μM, 25 μM, 50 μM, 100 μM, and 200 μM respectively. The IC50 values for inhibition of PI3Kβ by B591 were determined at indicated concentrations of ATP. In addition, B591 selectivity was tested against 39 kinases at Life Technologies.

[4] = biological target: T2, PI3Kβ (p110β/p85α) (Homo sapiens, UniProt P42338); assay: as above; assay type: biochemical
T2 construct: purchased Promega
Protocol: as §1

[5] = biological target: T3, PI3Kα (p110α/p85α) (Homo sapiens, UniProt P42336); assay: as above; assay type: biochemical; settings: incubated 30 min at room temperature
T3 construct: purchased Promega
Protocol: as §1

[6] = biological target: T4, PI3Kγ (p110γ) (Homo sapiens, UniProt P48736); assay: as above; assay type: biochemical; settings: incubated 30 min at room temperature
T4 construct: purchased Promega
Protocol: as §1

T2 sequence (P42338 whole entry): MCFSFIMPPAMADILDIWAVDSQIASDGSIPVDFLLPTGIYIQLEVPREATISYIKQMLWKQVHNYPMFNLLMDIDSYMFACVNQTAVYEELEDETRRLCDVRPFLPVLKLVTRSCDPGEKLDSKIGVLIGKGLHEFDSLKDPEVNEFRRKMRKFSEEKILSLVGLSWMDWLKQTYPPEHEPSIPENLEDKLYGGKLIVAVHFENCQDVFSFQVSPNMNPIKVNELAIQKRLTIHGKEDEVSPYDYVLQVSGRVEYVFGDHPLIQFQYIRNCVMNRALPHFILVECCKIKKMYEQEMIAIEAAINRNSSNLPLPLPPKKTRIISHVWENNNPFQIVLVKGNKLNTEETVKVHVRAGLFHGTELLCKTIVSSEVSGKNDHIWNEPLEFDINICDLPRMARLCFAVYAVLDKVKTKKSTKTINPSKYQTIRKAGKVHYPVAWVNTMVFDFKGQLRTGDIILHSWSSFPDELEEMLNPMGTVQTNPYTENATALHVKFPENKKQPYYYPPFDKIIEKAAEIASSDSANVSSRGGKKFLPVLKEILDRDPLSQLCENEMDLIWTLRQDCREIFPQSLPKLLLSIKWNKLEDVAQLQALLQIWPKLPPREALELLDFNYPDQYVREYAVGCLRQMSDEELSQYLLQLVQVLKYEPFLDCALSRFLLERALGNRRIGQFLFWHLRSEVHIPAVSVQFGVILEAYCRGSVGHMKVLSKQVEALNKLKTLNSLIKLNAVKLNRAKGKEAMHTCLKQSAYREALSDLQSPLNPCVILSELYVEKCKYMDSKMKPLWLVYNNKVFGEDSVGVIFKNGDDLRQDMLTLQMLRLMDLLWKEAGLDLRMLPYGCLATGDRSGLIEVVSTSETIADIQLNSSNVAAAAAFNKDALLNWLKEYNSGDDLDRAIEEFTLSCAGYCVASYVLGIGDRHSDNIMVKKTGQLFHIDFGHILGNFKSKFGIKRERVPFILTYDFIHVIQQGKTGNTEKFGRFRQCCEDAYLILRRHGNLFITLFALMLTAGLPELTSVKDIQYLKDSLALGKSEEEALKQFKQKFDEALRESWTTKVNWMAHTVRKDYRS
T2 sequence (P27986 whole entry partner): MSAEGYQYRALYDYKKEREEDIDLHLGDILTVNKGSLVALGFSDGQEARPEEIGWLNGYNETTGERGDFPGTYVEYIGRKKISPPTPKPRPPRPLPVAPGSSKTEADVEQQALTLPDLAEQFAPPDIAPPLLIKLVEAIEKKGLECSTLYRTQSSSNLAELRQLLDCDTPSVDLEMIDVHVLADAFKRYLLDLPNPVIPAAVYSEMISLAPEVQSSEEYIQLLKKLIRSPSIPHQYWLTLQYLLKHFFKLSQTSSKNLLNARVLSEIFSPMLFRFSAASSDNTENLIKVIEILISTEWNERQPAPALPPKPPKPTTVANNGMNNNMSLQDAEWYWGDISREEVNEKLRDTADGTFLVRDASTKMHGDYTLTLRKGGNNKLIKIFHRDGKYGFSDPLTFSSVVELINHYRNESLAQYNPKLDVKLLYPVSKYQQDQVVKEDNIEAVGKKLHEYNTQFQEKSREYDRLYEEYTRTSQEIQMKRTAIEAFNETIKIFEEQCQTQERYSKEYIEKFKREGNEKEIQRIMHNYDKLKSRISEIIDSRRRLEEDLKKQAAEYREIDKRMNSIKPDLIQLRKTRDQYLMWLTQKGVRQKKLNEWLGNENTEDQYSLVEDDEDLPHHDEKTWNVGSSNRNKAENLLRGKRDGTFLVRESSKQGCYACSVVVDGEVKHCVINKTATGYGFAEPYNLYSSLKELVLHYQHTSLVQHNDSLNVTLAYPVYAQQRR
T4 sequence (P48736 whole entry): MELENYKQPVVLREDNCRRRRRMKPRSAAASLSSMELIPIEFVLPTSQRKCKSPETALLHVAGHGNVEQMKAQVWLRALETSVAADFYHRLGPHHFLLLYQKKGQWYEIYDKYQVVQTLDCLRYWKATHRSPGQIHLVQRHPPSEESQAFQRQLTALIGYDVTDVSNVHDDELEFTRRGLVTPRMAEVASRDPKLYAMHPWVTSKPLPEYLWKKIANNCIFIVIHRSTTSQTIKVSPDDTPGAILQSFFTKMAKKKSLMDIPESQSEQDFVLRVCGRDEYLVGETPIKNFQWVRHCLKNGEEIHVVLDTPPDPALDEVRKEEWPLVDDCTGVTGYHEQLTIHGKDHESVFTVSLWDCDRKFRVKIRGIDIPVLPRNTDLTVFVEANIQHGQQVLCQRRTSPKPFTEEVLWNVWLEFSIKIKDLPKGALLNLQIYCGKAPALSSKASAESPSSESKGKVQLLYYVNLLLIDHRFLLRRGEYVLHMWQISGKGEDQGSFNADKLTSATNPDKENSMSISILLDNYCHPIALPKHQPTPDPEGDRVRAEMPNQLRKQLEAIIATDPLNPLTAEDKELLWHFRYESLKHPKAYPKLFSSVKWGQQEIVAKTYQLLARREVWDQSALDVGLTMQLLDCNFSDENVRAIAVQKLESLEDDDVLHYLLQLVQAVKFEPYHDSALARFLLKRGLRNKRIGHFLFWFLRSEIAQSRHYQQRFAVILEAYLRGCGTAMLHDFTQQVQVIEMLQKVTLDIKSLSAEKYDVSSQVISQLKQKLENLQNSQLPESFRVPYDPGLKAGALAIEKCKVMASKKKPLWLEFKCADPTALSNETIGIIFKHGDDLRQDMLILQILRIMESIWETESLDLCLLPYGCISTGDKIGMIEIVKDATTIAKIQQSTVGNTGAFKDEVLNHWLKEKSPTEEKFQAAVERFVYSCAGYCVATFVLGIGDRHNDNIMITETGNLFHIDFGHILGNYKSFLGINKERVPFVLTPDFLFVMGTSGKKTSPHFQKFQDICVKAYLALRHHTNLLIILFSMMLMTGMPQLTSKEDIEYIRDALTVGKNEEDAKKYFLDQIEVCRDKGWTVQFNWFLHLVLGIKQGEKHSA
T1 sequence (O00329 whole entry): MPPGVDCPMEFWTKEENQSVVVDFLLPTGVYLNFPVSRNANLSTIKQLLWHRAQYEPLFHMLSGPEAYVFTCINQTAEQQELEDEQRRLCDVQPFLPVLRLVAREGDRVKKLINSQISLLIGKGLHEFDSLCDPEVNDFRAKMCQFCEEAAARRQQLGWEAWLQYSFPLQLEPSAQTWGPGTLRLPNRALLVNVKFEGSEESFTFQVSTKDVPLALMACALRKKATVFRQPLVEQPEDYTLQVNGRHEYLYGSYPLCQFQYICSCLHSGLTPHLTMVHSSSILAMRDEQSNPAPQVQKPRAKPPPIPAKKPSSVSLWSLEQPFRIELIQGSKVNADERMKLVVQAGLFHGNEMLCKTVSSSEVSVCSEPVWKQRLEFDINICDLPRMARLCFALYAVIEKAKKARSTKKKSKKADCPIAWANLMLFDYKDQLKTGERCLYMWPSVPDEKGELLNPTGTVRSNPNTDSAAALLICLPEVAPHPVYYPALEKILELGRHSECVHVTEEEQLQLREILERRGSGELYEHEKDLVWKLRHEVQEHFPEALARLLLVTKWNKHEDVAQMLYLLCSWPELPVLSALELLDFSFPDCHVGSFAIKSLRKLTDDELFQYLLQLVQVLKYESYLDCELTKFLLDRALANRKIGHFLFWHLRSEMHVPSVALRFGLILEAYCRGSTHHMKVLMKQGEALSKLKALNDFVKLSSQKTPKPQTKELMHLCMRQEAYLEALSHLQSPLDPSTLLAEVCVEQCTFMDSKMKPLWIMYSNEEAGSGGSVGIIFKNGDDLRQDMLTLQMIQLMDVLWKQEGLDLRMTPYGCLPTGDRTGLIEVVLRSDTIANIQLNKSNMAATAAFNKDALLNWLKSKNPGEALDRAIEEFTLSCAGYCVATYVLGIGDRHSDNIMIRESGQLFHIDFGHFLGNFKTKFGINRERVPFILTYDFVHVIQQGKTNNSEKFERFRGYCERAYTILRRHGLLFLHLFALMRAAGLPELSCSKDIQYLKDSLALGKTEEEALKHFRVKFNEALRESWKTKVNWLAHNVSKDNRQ
T1 sequence (P27986 whole entry partner): as the sequence (P27986 whole entry partner) above
T3 sequence (P42336 whole entry): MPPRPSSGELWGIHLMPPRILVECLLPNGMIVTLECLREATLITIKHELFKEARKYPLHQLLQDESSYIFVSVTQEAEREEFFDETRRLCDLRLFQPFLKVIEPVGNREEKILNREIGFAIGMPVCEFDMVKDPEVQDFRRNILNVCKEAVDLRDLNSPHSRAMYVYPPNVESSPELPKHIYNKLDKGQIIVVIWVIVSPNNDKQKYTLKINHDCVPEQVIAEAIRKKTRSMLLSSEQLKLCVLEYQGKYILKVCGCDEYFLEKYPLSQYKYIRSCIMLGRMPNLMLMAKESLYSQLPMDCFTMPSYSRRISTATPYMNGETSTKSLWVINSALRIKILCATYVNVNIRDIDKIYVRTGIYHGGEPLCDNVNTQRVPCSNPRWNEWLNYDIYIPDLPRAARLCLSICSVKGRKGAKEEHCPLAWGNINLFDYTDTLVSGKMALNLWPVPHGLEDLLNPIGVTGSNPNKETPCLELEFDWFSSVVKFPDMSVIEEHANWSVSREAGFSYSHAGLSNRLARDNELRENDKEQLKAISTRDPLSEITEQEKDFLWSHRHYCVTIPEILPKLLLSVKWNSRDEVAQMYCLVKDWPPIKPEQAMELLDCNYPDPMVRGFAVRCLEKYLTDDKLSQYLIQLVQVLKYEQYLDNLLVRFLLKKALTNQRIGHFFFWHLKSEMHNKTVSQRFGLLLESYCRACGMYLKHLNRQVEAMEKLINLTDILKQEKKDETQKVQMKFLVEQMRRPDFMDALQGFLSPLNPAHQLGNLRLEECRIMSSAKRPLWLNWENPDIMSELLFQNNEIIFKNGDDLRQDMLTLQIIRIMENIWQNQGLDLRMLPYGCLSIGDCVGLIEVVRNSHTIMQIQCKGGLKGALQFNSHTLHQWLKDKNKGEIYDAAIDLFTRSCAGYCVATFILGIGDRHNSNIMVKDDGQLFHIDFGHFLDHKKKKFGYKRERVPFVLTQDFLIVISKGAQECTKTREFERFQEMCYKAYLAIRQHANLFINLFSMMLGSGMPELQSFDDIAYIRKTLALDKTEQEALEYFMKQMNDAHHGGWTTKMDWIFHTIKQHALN
T3 sequence (P27986 whole entry partner): as the sequence (P27986 whole entry partner) above

IC50 [3]: 1580 ± 160 nM
Mode of inhibition (IC50 for PI3Kβ at various concentrations of ATP) ([4]; ATP 5, 25, 50, 100 and 200 μM): ATP-competitive inhibitor
IC50 ([4]; PI3-Kinase Activity ELISA, incubated 30 min at room temperature): 364 ± 130 nM
IC50 [5]: 1300 ± 270 nM
IC50 [6]: 107 ± 70 nM
Structure (SMILES): Cc1cc2c(cc1C)[n+](Cc1ccccc1Br)cn2Cc1ccc2c(c1)CCO2.[Br-] [B591, 3-(2-bromobenzyl)-1-((2,3-dihydrobenzofuran-5-yl)methyl) -5,6-dimethyl-1H-benzo[d]imidazol-3-ium bromide]
number of tumor-bearing mice (number of recipient mice) ([1]; cell number 2 000): 0(5)
number of tumor-bearing mice (number of recipient mice) ([1]; cell number 20 000): 2(5)
number of tumor-bearing mice (number of recipient mice) ([1]; cell number 200 000): 3(5)
number of tumor-bearing mice (number of recipient mice) ([1]; cell number 200): 0(5)
Reduction of tumor-initiating frequency versus vehicle ([1]; cells from B591-treated tumors): sevenfold reduction
IGF-1-stimulated translocation of Akt to the plasma membrane [2]: potently prevented this translocation event in a concentration-dependent manner
